The values that follow come from PubChem BioAssay (NCI).

Common to all, as to test: inhibition of tumour cell growth, NCI panel, 48 h
In assay [1] the test system is COLO 205 colon.
Assay [2] has as its system HS 578T breast.
Assay [3] deals with MOLT-4 leukemia.
Assay [4] has as its system NCI-H522 lung.
The subject of assay [5] is OVCAR-4 ovarian.
Assay [6] has as its system SF-295 CNS.
Assay [7] has as its system SF-539 CNS.
For assay [8], the system named is SK-MEL-28 melanoma.
The test system of assay [9] is SNB-75 CNS.
Assay [10] has as its system UO-31 renal.

Molecules are shown by their SMILES. Several values for one entry are separate records, joined by “and”; a condition that tells them apart may be missing. Equal values may be shown once.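 All cell lines were grown in 96-well plates and treated with compound for 48 hours. GI50 marks 50% less growth. TGI is the concentration that stops growth completely.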

In the case of `O=C[C@@H](CO)O[C@H](C=O)c1c[nH]c(=O)[nH]c1=O`, the TGI was found to be 1210 µM in [1]; 402 µM in [2]; 605 µM in assay [3]; 282 µM in assay [4]; 375 µM in assay [5]; 1150 µM in assay [6]. Besides, the TGI in assay [7] worked out at 428 µM; in assay [8] it was 237 µM; in [9], 1310 µM; in [10] it was 287 µM.
`C/C(=N\NC(=O)c1sc(=S)n(C)c1N)c1cc2ccccc2o1`: the GI50 in assay [1] is 17.1 µM; in assay [2] it was 11.7 µM; in assay [3], 3.51 µM; in assay [4] it was 15.5 µM; in assay [5], 17.9 µM; in [6], 14.4 µM. Also, the GI50 in assay [7] was 12900 nM; in assay [8] it was 21.6 µM; in assay [9], 17300 nM; in assay [10], 18.3 µM. For the same compound, the TGI is 50.6 µM in assay [1]; 31.2 µM in assay [2]; 29.1 µM in assay [3]; 39 µM in assay [4]; 64.2 µM in [5]; 30 µM in [6]. In addition, the TGI in [7] was 25.9 µM; in assay [8], more than 100 µM; in assay [9] it was 42.6 µM; in assay [10], 37.8 µM.
In the case of `COc1cccc2c1C(=O)C=CC2=O`, the TGI in assay [1] is 20.5 µM; in [2] it was more than 100 µM; in assay [3] it was 2.34 µM; in assay [4], 5 µM; in assay [5], 3.77 µM; in assay [6], 29.2 µM. In addition, the TGI in assay [7] was 30.1 µM; in [8] it was 33.6 µM; in [9] it was 29.9 µM; in assay [10], 28.9 µM.
As to `COc1ccc(OC)c(/C=N/NC(=O)Cc2csc3nc(-c4ccc(Br)cc4)cn23)c1`, the GI50 is 35.7 µM in assay [1]; 11.6 µM in [2]; 3.47 µM in assay [3]; 22.7 µM in [4]; 28.4 µM in [5]; 12.3 µM in assay [6]. Also, the GI50 was 11200 nM in assay [7], 41.5 µM in assay [8], 23900 nM in assay [9] and 60.6 µM in assay [10]. Further, the TGI in [1] was more than 100 µM; in [2], 45.4 µM; in [3] it was 8.08 µM; in assay [4], more than 100 µM; in assay [5], more than 100 µM; in assay [6], 34.6 µM. Moreover, the TGI is 24.4 µM in assay [7], more than 100 µM in [8], 65.4 µM in [9] and more than 100 µM in assay [10].
As for `Cc1ccc(S(=O)(=O)N2CCCN(S(=O)(=O)c3ccc(C)cc3)CCN(S(=O)(=O)c3ccc(C)cc3)CCCSCC2)cc1`, the TGI in [1], in [2], in assay [3], in [5], in assay [6] and in assay [7] was more than 100 µM each time. Further, the TGI in assay [8], in [9] and in [10] was more than 100 µM in each case.
Consider `Cc1c2cc[n+](C)cc2c(C)c2c1sc1ccccc12`, for which the TGI amounted to 7.71 µM in assay [1]; 0.692 µM in assay [2]; 5.57 µM in assay [3]; 2.4 µM in assay [4]; 11.4 µM in assay [5]; 0.783 µM in [6]. Also, the TGI was 2.01 µM in assay [7], 6.15 µM in assay [8], 0.804 µM in assay [9] and more than 90.7 µM in assay [10].
Turning to `COc1cc(C2c3[nH]c4ccccc4c3C[C@H]3COC(=O)N23)cc(OC)c1OC` (some centres not stated), the GI50 in assay [1] was less than 0.01 µM; in assay [3] it was less than 0.01 µM; in assay [4], less than 0.01 µM; in [5] it was 0.507 µM; in assay [7], less than 10 nM; in [9] it was less than 10 nM. The GI50 in assay [10] is less than 0.01 µM. The TGI is 0.287 µM and 0.0434 µM in [1]; 0.0814 µM in assay [2]; 0.04 µM and < 0.01 µM in [4]; more than 100 µM in [5]; more than 100 µM in assay [9]; 50.1 µM in assay [10].
As to `CCCCC[C@H](O)/C=C/[C@@H]1[C@@H](C/C=C\CCCC(=O)O)[C@@H](O)C[C@H]1O`, the GI50 in assay [1], in assay [2], in assay [3], in assay [4], in assay [5] and in [6] was more than 100 µM in each case. Moreover, the results for the GI50 in assay [7], in assay [8] and in assay [10] were more than 100000 nM, more than 100 µM and more than 100 µM, respectively. Also, the TGI in [1], in assay [2], in assay [3], in assay [4], in assay [5] and in [6] was more than 100 µM in each case. Moreover, the TGI in [7], in assay [8] and in [10] was more than 100 µM throughout.
Turning to `Cc1c(N2CCCC2)cc2c(c1NC(=O)c1ccccc1Cl)C(C)(C)CC2(C)C`, the TGI was 35.2 µM in assay [1]; 38.4 µM in [2]; 28.4 µM in assay [4]; 33.3 µM in [5]; 26.8 µM in assay [6]; 39.7 µM in [7]. In addition, the TGI in assay [8] came to 33.1 µM; in assay [9], 28.9 µM; in [10], 26.4 µM.
With `OC(c1cccc(-n2ccc(C(F)(F)F)n2)c1)c1cnccc1NC1CCCCCC1` (configuration not stated), the GI50 in assay [2] was 1.64 µM; in [3], 2.16 µM; in assay [4] it was 1.76 µM; in assay [5], 1.64 µM; in [6] it was 1.79 µM; in assay [7], 1690 nM. Also, the GI50 in [8] was 1.77 µM; in assay [9], 1360 nM; in assay [10], 1.37 µM. For the same compound, the TGI amounted to 3.69 µM in assay [2]; 4.83 µM in assay [3]; 3.59 µM in assay [4]; 3.07 µM in assay [5]; 3.2 µM in assay [6]; 3.1 µM in assay [7]. The TGI in assay [8] amounted to 3.2 µM; in assay [9], 2.67 µM; in [10], 2.7 µM.
As to `COc1ccccc1NC(=O)c1sc2nc3c(cc2c1N)C(=O)CCC3`, the GI50 in assay [1] is 2.03 µM; in assay [2], 6.77 µM; in assay [3], more than 100 µM; in assay [4] it was 0.586 µM; in assay [6], 1.75 µM; in assay [7] it was 3970 nM. For the same compound, the GI50 was 3.46 µM in assay [8] and 2360 nM in assay [9]. The TGI in assay [1] is more than 100 µM; in assay [2], more than 100 µM; in assay [3], more than 100 µM; in [4] it was 38.7 µM; in assay [6] it was more than 100 µM; in assay [7], more than 100 µM. Also, the TGI in assay [8] was more than 100 µM; in assay [9] it was 9.42 µM.
Regarding `Cc1nc(-c2cccc(Nc3nc(-c4ccc(Cl)cc4)cs3)c2)cs1`, the GI50 in assay [1] was 11.9 µM; in [2], 14.1 µM; in assay [3], 30.9 µM; in [4], 8.8 µM; in assay [6], 10.6 µM; in assay [8] it was 9.6 µM. Moreover, the GI50 in [10] is 10 µM. The TGI in assay [1] was 31.1 µM; in assay [2], 34.9 µM; in assay [3], more than 50 µM; in assay [4] it was 19 µM; in [6], 28.5 µM; in assay [8], 21.3 µM. In addition, the TGI in assay [10] came to 21.1 µM.
`Cc1ccc(S(=O)(=O)OC2CCN(C)CC2)cc1`: the TGI in [1] is 42.3 µM; in assay [2], more than 100 µM; in assay [3], 36.6 µM; in assay [4] it was 46.5 µM; in assay [5] it was more than 100 µM; in assay [6] it was more than 100 µM. In addition, the TGI in [7], in assay [8] and in [9] was more than 100 µM each time.
Take `O=C1C(Cl)=C(Nc2cccc(Cl)c2)C(=O)N1Cc1ccccc1`: the GI50 in assay [1] is 15.7 µM; in assay [2] it was 6.34 µM; in [3], 3.38 µM; in assay [4], 14.2 µM; in assay [5], 22.3 µM; in assay [6], 6.28 µM. In addition, the figures for the GI50 in assay [8] and in assay [10] were 19.5 µM and 6.94 µM, respectively. Also, the TGI in assay [1] was more than 100 µM; in [2] it was 27.5 µM; in assay [3] it was more than 100 µM; in assay [4], more than 100 µM; in assay [5], 67.4 µM; in assay [6] it was 20.1 µM. Besides, the TGI in [8] stood at 55.5 µM; in assay [10], 25.8 µM.
As for `Cc1cccc(NC(=O)CCc2ccc(N3C(N)=NC(N)=NC3(C)C)cc2)c1`, the GI50 in assay [1] is 7.8 µM; in [2], more than 52 µM; in [3], 2.7 µM; in [5], 18.4 µM; in assay [6], 2.56 µM; in assay [7], 1930 nM. The GI50 is 11.8 µM in assay [8] and more than 100 µM in assay [10]. Besides, the TGI is more than 100 µM in [1]; more than 100 µM in [2]; more than 100 µM in assay [3]; more than 100 µM in assay [5]; more than 76.3 µM in [6]; more than 100 µM in [7]. Moreover, the TGI in assay [8], in assay [9] and in assay [10] was more than 100 µM each time.
Turning to `COc1cccc(C2c3cc4c(cc3OC(C)(N3CCCC3)C2C)OCO4)c1OC` (configuration not stated), the TGI was 24.6 µM in assay [1]; 52.5 µM in [2]; 27.4 µM in [3]; 52.3 µM in assay [4]; 46.1 µM in assay [5]; more than 100 µM in assay [6]. In addition, the TGI in [8] was more than 100 µM; in assay [9] it was 94.3 µM; in assay [10], 37.5 µM.
Consider `Cc1cc(N(CCC#N)CCC#N)ccc1/C=C1N=C(/C=C\c2ccccc2)OC\1=O`, for which the TGI in assay [1], in assay [3], in [4], in [5], in assay [6] and in assay [7] was more than 100 µM each time. For the same compound, the TGI in assay [8], in [9] and in assay [10] was more than 100 µM throughout.
`COc1ccc(C(=O)c2cc(OC)c(OC)c(OC)c2)cc1`: the TGI in [1] was 3.69 µM; in assay [3], 20.2 µM; in assay [4] it was 0.238 µM; in [5], more than 100 µM; in [6], 0.196 µM; in [7], 1.28 µM. Further, the figures for the TGI in [8], in [9] and in [10] were more than 95.8 µM, 0.988 µM and 61.9 µM, respectively.
As for `O=[N+]([O-])c1ccc(S(=O)(=O)Cc2ccccc2)c([N+](=O)[O-])c1`, the TGI in assay [1] is 3.26 µM; in assay [2], more than 91.7 µM; in assay [4] it was 2.81 µM; in assay [5], 5.77 µM; in assay [6], 33.6 µM; in assay [7] it was 3.8 µM. The TGI amounted to 8.24 µM in [8], 21.2 µM in assay [9] and 2.95 µM in assay [10].
With `CCSCC1CC(O)(c2ccccc2)C(c2ccccc2)C(c2ccc(Cl)cc2)O1` (configuration not stated), the GI50 is 1.53 µM in assay [1]; 2.5 µM in assay [2]; 1.73 µM in [3]; 1.66 µM in assay [5]; 1.56 µM in [6]; 1760 nM in [7]. For the same compound, the GI50 in assay [8] is 1.79 µM; in assay [9], 1750 nM; in assay [10] it was 1.07 µM. Further, the TGI in [1] was 2.94 µM; in assay [2] it was 8.87 µM; in assay [3], 9.82 µM; in assay [5], 4.35 µM; in assay [6], 3.73 µM; in assay [7], 3.56 µM. In addition, the TGI in assay [8] stood at 4.19 µM; in assay [9], 4.72 µM; in [10], 2.43 µM.
Regarding `CS/C(=N\C(=S)N(C)C)N(c1ccccc1)c1nc(=[N+](C)C)ss1`, the TGI in assay [1] is 7.04 µM; in [3] it was 18.3 µM; in assay [4], 5.36 µM; in assay [5], 24.7 µM; in assay [6], 57.4 µM; in [7], 25.5 µM. Further, the TGI in assay [8] was 9.22 µM; in assay [9], 19.1 µM; in assay [10], more than 100 µM.
